Key:
[1] = molecular target: soluble, sperm-specific adenylate cyclase (sAC) (Homo sapiens, UniProt Q96PN6); experiment: sAC-Assay (HTRF cAMP detection); format: biochemical; conditions: read-out: IC50 (inhibition of the soluble adenylate cyclase)
Text: In a suitable buffer system, the soluble, sperm-specific adenylate cyclase catalyzes the reaction of adenosine triphosphate (ATP) to cyclic adenosine monophosphate (cAMP) and pyrophosphate. Free cAMP that is generated in this way is then used in a competitive detection process, in which the binding of a europium kryptate (Eu[K])-labeled anti-cAMP antibody (anti cAMP-Eu[K]-AK) to a cAMP-molecule-labeled, modified allophycocyanine-1 molecule (cAMP-XL665) is prevented. In the absence of exogenic cAMP, after excitation at 335 nm, it results in a fluorescence resonance energy transfer (FRET) between the anti cAMP-Eu[K]-AK (FRET-donor) and the cAMP-XL665 molecule (FRET-acceptor). This process is quantified at different times (time-resolved) based on the emission of FRET-acceptor XL665 (665 nm and 620 nm). A signal drop (measured as a wave ratio; calculation formula: [(E665 nm/E620 nm)×10000]) can be attributed to the presence of cAMP and thus to the activity of sAC.
First, 1.5 μl of the test substance (in 30% DMSO), only 30% DMSO in the solvent controls, is introduced per recess in a 384-hole test plate (polystyrene; 384, NV). […]
After an additional incubation of 90 minutes at room temperature, the HTRF result is measured either on the Packard Discovery or with the RubiStar HTRF measuring device (Delay: 50 μs; Integration time: 400 μs).

[2] = statement on known sAC inhibitors; cited from earlier work

Chain of soluble, sperm-specific adenylate cyclase (sAC) (Q96PN6 whole entry): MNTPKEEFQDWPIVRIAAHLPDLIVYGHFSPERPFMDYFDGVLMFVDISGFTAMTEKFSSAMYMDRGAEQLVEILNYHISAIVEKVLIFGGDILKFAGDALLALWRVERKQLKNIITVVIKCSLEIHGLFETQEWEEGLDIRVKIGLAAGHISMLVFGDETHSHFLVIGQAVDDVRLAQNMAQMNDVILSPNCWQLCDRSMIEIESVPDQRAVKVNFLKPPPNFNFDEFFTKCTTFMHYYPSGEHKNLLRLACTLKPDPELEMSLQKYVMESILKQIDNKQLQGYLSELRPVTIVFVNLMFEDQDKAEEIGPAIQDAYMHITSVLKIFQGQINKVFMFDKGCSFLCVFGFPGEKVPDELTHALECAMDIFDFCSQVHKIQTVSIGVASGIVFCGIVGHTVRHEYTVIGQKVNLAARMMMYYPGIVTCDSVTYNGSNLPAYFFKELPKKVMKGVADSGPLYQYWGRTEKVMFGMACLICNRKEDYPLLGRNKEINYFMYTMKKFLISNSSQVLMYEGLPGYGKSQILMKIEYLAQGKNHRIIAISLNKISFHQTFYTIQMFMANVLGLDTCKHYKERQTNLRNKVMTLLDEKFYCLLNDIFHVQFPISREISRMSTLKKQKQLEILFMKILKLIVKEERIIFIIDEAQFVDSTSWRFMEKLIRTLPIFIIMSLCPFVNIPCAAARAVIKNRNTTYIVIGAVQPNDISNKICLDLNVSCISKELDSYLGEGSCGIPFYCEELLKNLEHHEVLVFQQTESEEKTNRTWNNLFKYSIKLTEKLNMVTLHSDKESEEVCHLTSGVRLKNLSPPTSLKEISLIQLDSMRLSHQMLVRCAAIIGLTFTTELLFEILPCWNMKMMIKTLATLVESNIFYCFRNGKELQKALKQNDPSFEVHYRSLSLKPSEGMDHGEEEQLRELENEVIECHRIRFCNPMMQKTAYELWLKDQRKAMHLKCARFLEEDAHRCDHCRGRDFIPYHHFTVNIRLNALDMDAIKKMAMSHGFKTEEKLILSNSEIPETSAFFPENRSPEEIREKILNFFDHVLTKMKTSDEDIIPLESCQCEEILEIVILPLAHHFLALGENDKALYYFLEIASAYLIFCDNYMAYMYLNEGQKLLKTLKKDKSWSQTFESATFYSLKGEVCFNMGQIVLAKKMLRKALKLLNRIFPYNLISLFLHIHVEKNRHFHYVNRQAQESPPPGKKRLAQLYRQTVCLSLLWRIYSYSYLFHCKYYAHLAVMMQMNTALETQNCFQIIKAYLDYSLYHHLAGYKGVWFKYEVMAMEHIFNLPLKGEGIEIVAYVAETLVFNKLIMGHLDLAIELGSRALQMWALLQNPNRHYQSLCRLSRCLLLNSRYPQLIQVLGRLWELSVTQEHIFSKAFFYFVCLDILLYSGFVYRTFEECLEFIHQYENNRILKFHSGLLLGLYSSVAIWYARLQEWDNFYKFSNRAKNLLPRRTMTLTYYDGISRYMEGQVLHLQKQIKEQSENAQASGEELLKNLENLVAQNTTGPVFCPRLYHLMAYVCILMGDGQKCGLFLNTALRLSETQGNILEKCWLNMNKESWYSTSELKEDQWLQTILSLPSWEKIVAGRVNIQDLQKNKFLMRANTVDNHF

CN(c1ccc2[nH]c(C(=O)NCCN3CCOCC3)c(-c3ccccc3)c2c1)S(=O)(=O)c1ccc(C(C)(C)C)cc1
IC50 [1]: 2600 nM

CC(O)CNC(=O)c1[nH]c2ccc(N(C)S(=O)(=O)c3ccc(C(C)(C)C)cc3)cc2c1-c1ccccc1 (racemic) [Example 4, (±)-5-[(4-tert-Butyl-phenylsulfonyl)-methyl-amino]-3-phenyl-1H-indole-2-carboxylic acid-(2-hydroxy-propyl)-amide]
IC50 [1]: 1300 nM

Cc1cc2c(C(C)C)c(O)c(O)c(C=O)c2c(O)c1-c1c(C)cc2c(C(C)C)c(O)c(O)c(C=O)c2c1O [gossypol]
toxicity [2]: inherently toxic

— US20070225284A1, “Inhibitors of soluble adenylate cyclase” (priority 2006, published 2007)
